Results as given in US11040031B2, “Pyrazole derivatives as MALT1 inhibitors” (Janssen Pharmaceutica NV, priority 2018, dated 2021).

Legend:
[1] = test system: Secretion of IL6 by TMD8 ABC-DLBCL cells; assay: Human IL6 Mesoscale assay (TMD-8); assay type: cell-based; settings: TMD8 cells, 24 h incubation, supernatant, MSD V-Plex, read-out: Human IL6 Mesoscale assay (TMD-8)
Procedure: (§1) NFKB signaling regulates the secretion of multiple cytokines, including IL6 and IL10. Secretion of the cytokines IL6 and IL10 by TMD8 or OCI-LY3 ABC-DLBCL cells was measured using a mesoscale assay.
(§2) Cell passage number should not exceed 30. Cells should be kept between 0.5-2.5 million cells per mL during culturing and cells should be supplemented every 2-3 days with fresh 50 µM beta-mercaptoenthanol. No beta-mercaptoethanol was used during the mesoscale assay.
(§3) DMSO control wells were used to determine the maximum signal (High Control (HC)). […] Compounds and cells were incubated for 24 h at 37° C. and 5% CO2 (assay volume is 150 μL). After 24 h of incubation 50 μL of the supernatant was transferred to a MSD plate (V-Plex Proinflammation Panel 1 (human) kit, Mesoscale (MSD)) and incubated for 2 h with vigorous shaking (600 rpm) at room temperature. Following incubation, plates were washed 3× with PBS+0.05% Tween-20 and 25 μL detection antibody solution (IL6 & IL10 antibodies in diluent 3 (MSD)) was added per well followed by 2 h of incubation with vigorous shaking (600 rpm) at room temperature. After 3× washes with PBS+0.05% Tween-20, plates were incubated with 150 μL 2× Read Buffer T and read on SECTOR imager.

[2] = test system: Secretion of IL6 by OCI-LY3 ABC-DLBCL cells; assay: Human IL6 Mesoscale assay (OCI-LY3); assay type: cell-based; settings: OCI-LY3 cells, 24 h incubation, supernatant, MSD V-Plex, read-out: Human IL6 Mesoscale assay (OCI-LY3)
Summary of the method: (§4)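 TMD8 or OCI-LY3 ABC-DLBCL cells incubated with compound 24 h at 37° C without beta-mercaptoethanol. Secreted IL6 and IL10 in supernatant quantified by MSD electrochemiluminescence immunoassay; DMSO wells define maximum signal.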

[3] = test system: OCI-Ly3 ABC-DLBCL cell line; assay: 4-day proliferation assay OCI-Ly3; assay type: cell-based; settings: Homo sapiens, 96 h; 10,000 OCI-Ly3 cells per well, 4 days, CellTiterGLO; read-out: Anti-proliferation: OCI-LY-3 IC50
Summary of the method: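 10,000 OCI-Ly3 cells per well cultured 4 days at 37° C., 5% CO2 without beta-mercaptoethanol, at densities giving linear growth. Viability read by CellTiterGLO luminescence after 10 min at room temperature.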

[4] = molecular target: T1, full-length MALT1 protein (Strep-MALT1(1-824)-His) (Homo sapiens, UniProt Q9UDY8); assay: biochemical;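 note: fluorogenic LRSR-AMC substrate cleavage by MALT1, 50 min compound preincubation then 4 h reaction at RT, 11-point dilution from 30 µM, scaled between enzyme-free and untreated enzyme controls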
T1 sequence (Q9UDY8 1-824): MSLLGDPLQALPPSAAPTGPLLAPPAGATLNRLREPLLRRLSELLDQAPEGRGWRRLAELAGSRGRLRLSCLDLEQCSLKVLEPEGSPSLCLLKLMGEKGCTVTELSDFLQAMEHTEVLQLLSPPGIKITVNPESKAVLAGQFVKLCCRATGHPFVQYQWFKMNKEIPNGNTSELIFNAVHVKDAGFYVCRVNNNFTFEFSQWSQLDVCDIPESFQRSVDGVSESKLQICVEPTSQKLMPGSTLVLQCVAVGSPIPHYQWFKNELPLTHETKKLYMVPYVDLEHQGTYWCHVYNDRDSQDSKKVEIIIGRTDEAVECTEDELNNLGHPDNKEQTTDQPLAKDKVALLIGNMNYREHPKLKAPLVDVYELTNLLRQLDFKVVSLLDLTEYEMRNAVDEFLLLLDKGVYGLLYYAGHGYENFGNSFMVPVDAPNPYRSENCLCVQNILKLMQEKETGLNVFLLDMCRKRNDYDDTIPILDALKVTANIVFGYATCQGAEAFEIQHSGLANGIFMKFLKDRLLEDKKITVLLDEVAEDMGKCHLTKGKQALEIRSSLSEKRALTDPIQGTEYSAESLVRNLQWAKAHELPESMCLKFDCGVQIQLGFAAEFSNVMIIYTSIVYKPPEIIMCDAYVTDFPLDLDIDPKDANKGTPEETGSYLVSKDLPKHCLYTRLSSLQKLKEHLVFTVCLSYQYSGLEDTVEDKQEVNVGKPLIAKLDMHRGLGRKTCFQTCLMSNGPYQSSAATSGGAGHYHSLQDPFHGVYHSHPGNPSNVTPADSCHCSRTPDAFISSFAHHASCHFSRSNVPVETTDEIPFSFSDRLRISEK

[5] = test system: Secretion of IL10 by TMD8 ABC-DLBCL cells; assay: Human IL10 Mesoscale assay (TMD-8); assay type: cell-based; settings: TMD8 cells, 24 h incubation, supernatant, MSD V-Plex, read-out: Human IL10 Mesoscale assay (TMD-8)
Procedure: as §1, §2, §3

[6] = test system: Secretion of IL10 by OCI-LY3 ABC-DLBCL cells; assay: Human IL10 Mesoscale assay (OCI-LY3); assay type: cell-based; settings: OCI-LY3 cells, 24 h incubation, supernatant, MSD V-Plex, read-out: Human IL10 Mesoscale assay (OCI-LY3)
Summary of the method: as §4

| Structure (SMILES) | IC50 [1] [nM] | IC50 [2] [nM] | IC50 [3] [nM] | IC50 [4] [nM] | IC50 [5] [nM] | IC50 [6] [nM] |
| --- | --- | --- | --- | --- | --- | --- |
| Cc1cc(F)ccc1-n1ncc(C(=O)Nc2cnc(-n3nccn3)c(Cl)c2)c1C(F)(F)F [Cpd 1, N-(5-Chloro-6-(2H-1,2,3-triazol-2-yl)pyridin-3-yl)-1-(4-fluoro-2-methylphenyl)-5-(trifluoromethyl)-1H-pyrazole-4-carboxamide] | 79 | 83 | 1350 | 117 | 85 | 58 |
| N#Cc1cc(NC(=O)c2cnn(-c3ccnc4c3OCO4)c2C(F)(F)F)cnc1-n1nccn1 [Cpd 53, 1-([1,3]dioxolo[4,5-b]pyridin-7-yl)-N-(5-cyano-6-(2H-1,2,3-triazol-2-yl)pyridin-3-yl)-5-(trifluoromethyl)-1H-pyrazole-4-carboxamide] | 89 | 166 | 1860 | 74 | 209 | 145 |
| N#Cc1cc(NC(=O)c2cnn(-c3ncc(F)cc3Cl)c2C(F)(F)F)cnc1-n1nccn1 [Cpd 106, 1-(3-chloro-5-fluoropyridin-2-yl)-N-(5-cyano-6-(2H-1,2,3-triazol-2-yl)pyridin-3-yl)-5-(trifluoromethyl)-1H-pyrazole-4-carboxamide] | 2290 |  | 2880 | 251 | 2040 |  |
| CN1CCOc2c1cccc2-n1ncc(C(=O)Nc2cnc(-n3nccn3)c(C#N)c2)c1C(F)(F)F [Cpd 132, N-(5-cyano-6-(2H-1,2,3-triazol-2-yl)pyridin-3-yl)-1-(4-methyl-3,4-dihydro-2H-benzo[b][1,4]oxazin-8-yl)-5-(trifluoromethyl)-1H-pyrazole-4-carboxamide] | 550 |  | 1100 | 191 | 1350 |  |
